We go through 23 compounds from US8975279B2, “Amine salts of laquinimod” (Teva Pharmaceutical Industries, Ltd., priority 2012, dated 2015).

In brackets after ≈: the same amount, converted by molar mass. Several values for one entry are separate records, joined by “and”; a condition that tells them apart may be missing. Identical values can stand only once. Counter-ions that a name gives are not always drawn. Like-named read-outs stand apart in the source and are kept apart here. Marks after values point to notes of the source that are not given here.

The conditions of data set [1]: cited from earlier work.
Data set [2] in a line: Physical stability in glass vials at +5° C., air atmosphere. In kind it is physicochemical. The conditions noted are these: for Sample appearance: glass vials, air atmosphere.
Data set [3] in a line: Physical stability on exposure to atmospheric air at room temperature. The format is physicochemical. The conditions noted are these: RH=25-30%, T=18-20° C.
The nature of data set [4]: Aqueous solubility of laquinimod and its salts. The format is physicochemical. The conditions noted are these: for Aqueous solubility: water.
[5] abbreviates: sealed transparent glass vials at +5° C. for 6 months.
Where [6] appears, read: sealed transparent glass vials at +5° C. for 3 months.
Where [7] appears, read: +5° C., after 9 months of storage.
[8] abbreviates: +5° C., after 7 months of storage.

On to `Cc1cnc(NC(=O)C2=C(O)c3ccccc3S(=O)(=O)N2C)s1` [free meloxicam, meloxicam], for which the solubility in data set [1] (pH 7.4) is 0.74 mg/mL (≈ 2110 µM).
As to `CN1C(C(=O)Nc2ccccn2)=C(O)c2ccccc2S1(=O)=O` [free piroxicam, piroxicam], the solubility in data set [1] (pH 7.4, unit not given) is listed as 0.17.
With `CN1C(C(=O)Nc2ccccn2)=C(O)c2ccccc2S1(=O)=O.NCCO` [monoethanolamine salt of piroxicam], the solubility in data set [1] (pH 7.4) was 126.2 mg/mL.
In the case of `CCN(C(=O)c1c(O)c2c(Cl)cccc2n(C)c1=O)c1ccccc1` [Batch 6, laquinimod choline hydroxide], the “Physical stability (physical change)” value in data set [2] (+5° C., after 5 months) was “developed color and deliquescence occurred”; in data set [2] (setting [5]), “Physical change was observed”. For the same compound, the Sample appearance result in data set [2] (+5° C., 6 months) is on record as “yellowish semi-solid with signs of deliquescence”; in data set [2] (+5° C., time 0 month), “White glassy solid”.
For `C[N+](C)(C)CCO.O=C([O-])c1ccccc1O` [choline salicylate salt, choline salicylate], the “solubility (in words)” value in data set [1] is “insoluble”.
Regarding `CNCC(O)C(O)C(O)C(O)CO.Oc1cc(Cl)ccc1Oc1ccc(Cl)cc1Cl` [Triclosan meglumine salt], the solubility in data set [1] (pH not given) was 12.43 mg/mL.
Regarding `CCN(C(=O)c1c(O)c2c(Cl)cccc2n(C)c1=O)c1ccccc1` [Batch 12, laquinimod monoethanolamine], in data set [2] (+5° C., 3 months), the Sample appearance entry is “yellowish aggregated powder”. Moreover, the “Physical stability (overall)” value in data set [2] (refrigerator, atmospheric air, overall statement) is “less stable”. Moreover, the “Physical stability (physical change)” value in data set [2] (setting [6]) is given as “Physical change was observed”. The Physical stability result in data set [3] (4 hours) is “no change”; in data set [3] (24 hours) it was “yellowish aggregated powder”.
`CCN(C(=O)c1c(O)c2c(Cl)cccc2n(C)c1=O)c1ccccc1` [Batch 9, laquinimod L-lysine]: the Aqueous solubility in data set [4] is 1176 mg/ml H2O; in data set [4] (depends on preparation method and form, listed as 3.1) it was 1176 mg/mL. Besides, the entries for the “Physical stability (physical change)” value in data set [2] (setting [7]) and in data set [2] (setting [5]) were “no sign of physical change” and “No physical change was observed”, respectively. In addition, the Sample appearance result in data set [2] (+5° C., 5 months) was “White flowable powder”; in data set [2] (+5° C., 6 months), “white flowable powder”; in data set [2] (+5° C., 9 months) it was “White flowable powder”; in data set [2] (+5° C., time 0 month), “White flowable powder”.
In the case of `CNC[C@H](O)[C@@H](O)[C@H](O)[C@H](O)CO.Cc1cnc(NC(=O)C2=C(O)c3ccccc3S(=O)(=O)N2C)s1` [meglumine salt of meloxicam], the Aqueous solubility in data set [1] (pH 8.57) is 2.3 mg/mL.
Take `CCN(C(=O)c1c(O)c2c(Cl)cccc2n(C)c1=O)c1ccccc1` [laquinimod choline hydroxide]: in data set [4] (laquinimod choline hydroxide salt vs laquinimod sodium), the “solubility relative to the sodium salt” value is reported as “over 14 times”. Moreover, the Aqueous solubility in data set [4] (depends on preparation method and form, listed as choline hydroxide salt of laquinimod) was 2000 mg/mL and 2100 mg/mL.
With `CCN(C(=O)c1c(O)c2c(Cl)cccc2n(C)c1=O)c1ccccc1` [Batch 7, laquinimod choline hydroxide], the Aqueous solubility is more than 2100 mg/ml H2O in data set [4]; >2100** mg/ml in data set [4] (depends on preparation method and form, listed as 2.3). Further, the “Physical stability (physical change)” value is listed as “no sign of physical change” in data set [2] (setting [7]) and “No physical change was observed” in data set [2] (setting [5]). The Sample appearance result in data set [2] (+5° C., 5 months) was “White powder”; in data set [2] (+5° C., 6 months), “white powder with no signs of deliquescence”; in data set [2] (+5° C., 9 months) it was “White powder”; in data set [2] (+5° C., time 0 month), “White powder”.
`NCCO.Oc1cc(Cl)ccc1Oc1ccc(Cl)cc1Cl` [Monoethanolamine salt of triclosan]: the solubility in data set [1] (pH not given) is 5.84 mg/mL.
Consider `CCN(C(=O)c1c(O)c2c(Cl)cccc2n(C)c1=O)c1ccccc1` [Batch 8, laquinimod choline hydroxide], for which the Aqueous solubility in data set [4] is 2000 mg/ml H2O; in data set [4] (depends on preparation method and form, listed as 2.4) it was >2000** mg/ml. Also, the “Physical stability (physical change)” value is reported as “no sign of physical change” in data set [2] (setting [7]) and “No physical change was observed” in data set [2] (setting [5]). Also, the Sample appearance entry in data set [2] (+5° C., 5 months) is “White powder”; in data set [2] (+5° C., 6 months), “white powder with no signs of deliquescence”; in data set [2] (+5° C., 9 months), “White powder”; in data set [2] (+5° C., time 0 month) it was “White powder”.
On to `CCN(C(=O)c1c(O)c2c(Cl)cccc2n(C)c1=O)c1ccccc1` [Batch 4, laquinimod meglumine], for which the Aqueous solubility was 1050 mg/ml H2O in data set [4]; 1050 mg/mL in data set [4] (depends on preparation method and form, listed as 1.4). The “Physical stability (physical change)” value in data set [2] (+5° C., after 10 months of storage) is reported as “no sign of physical change”; in data set [2] (setting [5]), “No physical change was observed”. For the same compound, the Sample appearance result in data set [2] (+5° C., 6 months) was “white powder with no signs of deliquescence”.
As to `CCN(C(=O)c1c(O)c2c(Cl)cccc2n(C)c1=O)c1ccccc1` [Batch 10, laquinimod L-lysine], the Aqueous solubility was found to be 1000 mg/ml H2O in data set [4]; 1000 mg/mL in data set [4] (depends on preparation method and form, listed as 3.2). In addition, the entries for the “Physical stability (physical change)” value in data set [2] (setting [7]) and in data set [2] (setting [5]) were “no sign of physical change” and “No physical change was observed”, respectively. Also, the Sample appearance entry was “White flowable powder” in data set [2] (+5° C., 5 months); “white powder” in data set [2] (+5° C., 6 months); “White flowable powder” in data set [2] (+5° C., 9 months); “White flowable powder” in data set [2] (+5° C., time 0 month).
Regarding `CCN(C(=O)c1c(O)c2c(Cl)cccc2n(C)c1=O)c1ccccc1` [laquinimod monoethanolamine], the Aqueous solubility in data set [4] (depends on preparation method and form, listed as Laquinimod monoethanoloamine salt) was 625 mg/mL and 1176 mg/mL.
Consider `Cc1cnc(NC(=O)C2=C(O)c3ccccc3S(=O)(=O)N2C)s1` [meloxicam sodium salt], for which the Aqueous solubility in data set [1] (pH 8.06) is 2.0 mg/mL.
Consider `CCN(C(=O)c1c(O)c2c(Cl)cccc2n(C)c1=O)c1ccccc1` [laquinimod meglumine], for which the Aqueous solubility in data set [4] (depends on preparation method and form, listed as meglumine laquinimod salt) was 1050 mg/mL and 1330 mg/mL.
On to `CCN(C(=O)c1c(O)c2c(Cl)cccc2n(C)c1=O)c1ccccc1` [laquinimod L-lysine], for which, in data set [4] (depends on preparation method and form, listed as L-lysine laquinimod salt), the Aqueous solubility was 1000 mg/mL and 1176 mg/mL.
On to `CCN(C(=O)c1c(O)c2c(Cl)cccc2n(C)c1=O)c1ccccc1` [Batch 14, laquinimod monoethanolamine], for which the “Physical stability (physical change)” value was “no sign of physical change” in data set [2] (setting [8]) and “No physical change was observed” in data set [2] (setting [6]). In addition, the Sample appearance entry in data set [2] (+5° C., 3 months) is “white powder”. Besides, the Physical stability entry was “no change” in data set [3] (4 hours) and “aggregated white powder” in data set [3] (16 hours).
For `CCN(C(=O)c1c(O)c2c(Cl)cccc2n(C)c1=O)c1ccccc1` [Batch 13, laquinimod monoethanolamine], the Aqueous solubility is 1176 mg/ml H2O in data set [4]; 1176 mg/mL in data set [4] (depends on preparation method and form, listed as 4.2). In addition, the “Physical stability (physical change)” value in data set [2] (setting [8]) was “slight aggregation was developed”. Also, the Sample appearance entry is “off-white powder” in data set [2] (+5° C., 3 months) and “White powder” in data set [2] (+5° C., time 0 month).
Turning to `CC(C)Cc1ccc(C(C)C(=O)[O-])cc1.[Na+]` (stereo not shown) [ibuprofen sodium salt], the solubility in data set [1] (pH not given) was 100 mg/mL.
Regarding `CCN(C(=O)c1c(O)c2c(Cl)cccc2n(C)c1=O)c1ccccc1` [Batch 3, laquinimod meglumine], the “Physical stability (physical change)” value in data set [2] (+5° C., after 5 months) was “physical change was observed”; in data set [2] (setting [5]), “Physical change was observed”. For the same compound, in data set [2] (+5° C., 6 months), the Sample appearance result is “lumped white powder, with signs of deliquescence”.
